# Key:
# Assay in all cases: relative viability (nuclei count vs DMSO), 5 days (fraction); higher = more cells survive
# Salubrinal + Bortezomib = compound: O=C(/C=C/c1ccccc1)NC(NC(=S)Nc1cccc2cccnc12)C(Cl)(Cl)Cl [Salubrinal] + CC(C)C[C@H](NC(=O)[C@H](Cc1ccccc1)NC(=O)c1cnccn1)B(O)O [Bortezomib] (partner 0.002 µM)
# In short: (§1)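 Nuclei were stained with Hoechst during a one-step fixation (final 0.05% Triton X-100, 1% formaldehyde, 1 ug/ml Hoechst) carried out 5 days after dosing, then counted on 4× images. The cells, lung cancer lines in 1536-well plates, had been dosed by pin tool the day after seeding with one drug alone or a fixed anchor-drug dose plus five library-drug doses (not always all listed) in √10 steps. Relative viability is the nuclei count in treated wells divided by that in vehicle wells, and each value is the median of duplicate plates.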
# [1] = compound: Cc1ccc2nc(NCCN)c3ncc(C)n3c2c1 + Nc1nc2[nH]cc(CCc3ccc(C(=O)N[C@@H](CCC(=O)O)C(=O)O)cc3)c2c(=O)[nH]1 [Pemetrexed] (partner 0.2 µM)
# In short: as §1
# Salubrinal + Crizotinib = compound: O=C(/C=C/c1ccccc1)NC(NC(=S)Nc1cccc2cccnc12)C(Cl)(Cl)Cl [Salubrinal] + C[C@@H](Oc1cc(-c2cnn(C3CCNCC3)c2)cnc1N)c1c(Cl)ccc(F)c1Cl [Crizotinib] (partner 1 µM)
# In short: as §1
# [2] = compound: Cc1ccc2nc(NCCN)c3ncc(C)n3c2c1 + COc1cc2c(Oc3ccc(NC(=O)C4(C(=O)Nc5ccc(F)cc5)CC4)cc3F)ccnc2cc1OCCCN1CCOCC1 [Foretinib] (partner 0.25 µM)
# In short: as §1
cell line,measurement,setting,value
UMC-11,relative viability,Salubrinal + Bortezomib; first compound 0.08 µM,0.747
same,relative viability,Salubrinal + Bortezomib; first compound 0.253 µM,0.462
same,relative viability,Salubrinal + Bortezomib; first compound 0.8 µM,1.29
same,relative viability,Salubrinal + Bortezomib; first compound 2.53 µM,0.904
same,relative viability,Salubrinal + Bortezomib; first compound 8 µM,0.575
same,relative viability,[1]; first compound 0.04 µM,0.858
same,relative viability,[1]; first compound 0.1265 µM,0.744
same,relative viability,[1]; first compound 0.4 µM,0.808
same,relative viability,[1]; first compound 1.265 µM,0.734
same,relative viability,[1]; first compound 4 µM,0.674
same,relative viability,Salubrinal + Crizotinib; first compound 0.08 µM,0.577
same,relative viability,Salubrinal + Crizotinib; first compound 0.253 µM,0.54
same,relative viability,Salubrinal + Crizotinib; first compound 0.8 µM,0.586
same,relative viability,Salubrinal + Crizotinib; first compound 2.53 µM,0.578
same,relative viability,Salubrinal + Crizotinib; first compound 8 µM,0.599
same,relative viability,[2]; first compound 0.04 µM,1.02
same,relative viability,[2]; first compound 0.1265 µM,0.999
same,relative viability,[2]; first compound 0.4 µM,1.02
same,relative viability,[2]; first compound 1.265 µM,1.01
same,relative viability,[2]; first compound 4 µM,0.945

# — the supplement of paper PMC10307832
